From paper PMC5316400, “Validation of precision-cut liver slices to study drug-induced cholestasis: a transcriptomics approach” (Archives of Toxicology, 2016)

What was measured:
[1] = test system: human precision-cut liver slices (PCLS); test: Transcriptomics of human PCLS: differentially regulated genes; format: cell-based; conditions: fold change of 1.5 and adjusted p value 0.05, 24 h, 60 μM bile acid mix
Description: (§1) Precision-cut liver slices of 5 mm diameter and 250 μm thickness were prepared (de Graaf et al. [2010]). At this thickness, full penetration of substrates has been shown. PCLS were made using the Krumdieck tissue slicer (Alabama R&D, Munford, AL, USA) in ice-cold Krebs buffer at pH 7.42, enriched with glucose to a final concentration of 25 mM, saturated with carbogen (95 % O2/5 % CO2). Immediately after the slices were made, they were placed in ice-cold University of Wisconsin organ preservation solution (UW, Dupont Critical Care, Waukegan, IL, USA) and stored on ice until the beginning of the experiment. Slices were pre-incubated individually in 12-well plates in 1.3 ml of Williams Medium E with glutamax-1 (Gibco, Invitrogen, Paisley, Scotland) supplemented with 25 mM D-glucose and 50 μg/ml gentamycin (Gibco, Invitrogen, Paisley, Scotland). In the incubator (Sanyo CO2/O2 Incubator, PANASONIC, Secaucus, NJ, USA), the plates were gently shaken (90 times/min) for 1 h under 80 % O2 and 5 % CO2 atmosphere at 37 °C. This pre-incubation allows the slices to restore their ATP levels. […] The plates were incubated under the same conditions for 24 h. All incubation conditions were carried out in triplicate. Each experiment was performed in slices of 6 different human livers (Table 1). Slices were harvested for ATP assay in 100 mM Tris buffer with 2 mM EDTA and for RNA isolation in RNAlater. The bile acid mix was added to the medium in order to create an environment similar to the physiological concentration in the portal vein. The composition of the serum bile acids was according to Scherer et al. ([2009]). Pilot experiments were performed to find out the non-toxic concentration of the bile acid mix.
(§2) Maxwell® 16 LEV Total RNA purification kit (Promega, The Netherlands) with Maxwell® 16 LEV Instrument was used to isolate RNA from the samples. Immediately after isolation, the RNA quality was assessed by measuring the 260/280 and 260/230 ratios, and the concentration was measured with the ND-1000 spectrophotometer (Fisher Scientific, Landsmeer, The Netherlands). The quality (RIN value) and quantity of the RNA were determined by high-throughput Caliper GX LabChip RNA kit (Caliper).
(§3) Ambion Illumina Total Prep RNA kit was used to transcribe 300 ng RNA to cRNA according to the manufacturer’s instructions. A total of 750 ng of cRNA was hybridized at 58 °C for 16 h to the Illumina HumanHT-12 v4 Expression BeadChips. BeadChips were scanned using Iscan software, and IDAT files were generated (Illumina, San Diego, CA, USA).
(§4) GenomeStudio software (Illumina) was used to read the IDAT files and generate raw expression values. The ArrayAnalysis web service (www.arrayanalysis.org/) was used for further preprocessing the data, which uses lumi R package (Eijssen et al. [2013]). Raw gene expression data were background-corrected (bgAdjust), variance-stabilized (VST) and normalized by quantile normalization. After normalization, the data were corrected for batch differences owing to RNA isolation and hybridization using the ComBat method implemented in the swamp package in R (Lauss et al. [2013]). Differentially expressed genes in slices exposed to the cholestatic drugs in the presence of bile acids versus the slices exposed to vehicle (DMSO) in the presence of bile acids were identified using the unpaired moderated t test in the limma package (Ritchie et al. [2015]). Genes that are regulated with a criterion of fold change of 1.5 (≤ or ≥1.5), and FDR-corrected p value ≤0.05 (Benjamini and Hochberg method) were chosen for pathway analysis. To compare our data with the scarcely available human in vivo data, human in vivo late-stage cholestasis data were downloaded from the Gene Expression Omnibus database (GSE46960).

[2] = test system: Genes involved in unfolded protein response (UPR); test: Microarray gene expression in human PCLS exposed to cholestatic drugs: unfolded protein response genes; format: cell-based; conditions: 24 h, 60 μM bile acid mix
Description: as §1, §2, §3, §4

[3] = C max in systemic blood of adult patients after a therapeutic dose; conditions: highest toxic concentration tested in human PCLS vs C max in adult patients
[4] = test system: Genes involved in hepatic cholestasis pathway; test: Microarray gene expression in human PCLS exposed to cholestatic drugs: hepatic cholestasis pathway genes; conditions: 24 h, 60 μM bile acid mix
Description: as §1, §2, §3, §4

[5] = test system: Genes involved in the FXR pathway; test: Microarray gene expression in human PCLS exposed to cholestatic drugs: FXR pathway genes; conditions: 24 h, 60 μM bile acid mix
Description: as §1, §2, §3, §4

[6] = adult patients, therapeutic dose, systemic blood; no reference given; cited from earlier work

CN(C)CCCN1c2ccccc2Sc2ccc(Cl)cc21 [CP, chlorpromazine]
Number of regulated genes ([1]; 10 μM): 1 | Number of regulated genes ([1]; 20 μM): 2 | Number of regulated genes ([1]; 30 μM): 61 | ATF4 fold change ([2]; 30 μM): 1.5 | DDIT3 (CHOP) fold change ([2]; 30 μM): 1.2 | DNAJB9 fold change ([2]; 30 μM): 1.0 | ERN1 fold change ([2]; 30 μM): 1.0 | HSPA9 fold change ([2]; 30 μM): 1.1 | HSPH1 fold change ([2]; 30 μM): 1.0 | INSIG1 fold change ([2]; 30 μM): 1.3 | NFE2L2 fold change ([2]; 30 μM): 1.1 | SYVN1 fold change ([2]; 30 μM): 1.0 | toxic concentration used in PCLS study relative to C max [3]: ~ 70 × C max | ABCB4 fold change ([4]; 30 μM): −2.0 | ABCB11 fold change ([4]; 30 μM): −1.4 | ABCC3 fold change ([4]; 30 μM): −1.1 | ABCG5 fold change ([4]; 30 μM): −1.4 | ABCG8 fold change ([4]; 30 μM): −1.7 | CYP8B1 fold change ([4]; 30 μM): −2.3 | CYP27A1 fold change ([4]; 30 μM): −1.3 | GCGR fold change ([4]; 30 μM): −1.7 | IL1B fold change ([4]; 30 μM): −1.1 | IL1RL1 fold change ([4]; 30 μM): 1.4 | IL1RN fold change ([4]; 30 μM): 1.3 | IRAK2 fold change ([4]; 30 μM): 1.2 | JUN fold change ([4]; 30 μM): 1.5 | NR0B2 fold change ([4]; 30 μM): −1.6 | NR1H3 fold change ([4]; 30 μM): −1.2 | NR1H4 fold change ([4]; 30 μM): −1.2 | PPRC1 fold change ([4]; 30 μM): 1.2 | RXRA fold change ([4]; 30 μM): −1.3 | SLC22A7 fold change ([4]; 30 μM): −2.6 | TNFRSF1B fold change ([4]; 30 μM): 1.0 | ABCB4 fold change ([5]; 30 μM): −2.0 | ABCB11 fold change ([5]; 30 μM): −1.7 | ABCG5 fold change ([5]; 30 μM): −1.4 | ABCG8 fold change ([5]; 30 μM): −1.7 | APOC2 fold change ([5]; 30 μM): −1.4 | APOC4 fold change ([5]; 30 μM): −1.8 | APOF fold change ([5]; 30 μM): −1.9 | BAAT fold change ([5]; 30 μM): −1.5 | C3 fold change ([5]; 30 μM): −1.5 | CYP8B1 fold change ([5]; 30 μM): −2.3 | CYP27A1 fold change ([5]; 30 μM): −1.1 | FASN fold change ([5]; 30 μM): −1.4 | FBP1 fold change ([5]; 30 μM): −2.0 | FETUB fold change ([5]; 30 μM): −1.8 | FGA fold change ([5]; 30 μM): −1.7 | ITIH4 fold change ([5]; 30 μM): −1.4 | KNG1 fold change ([5]; 30 μM): −1.8 | NR0B2 (SHP) fold change ([5]; 30 μM): −1.3 | NR1H3 (LXR) fold change ([5]; 30 μM): −1.3 | NR1H4 (FXR) fold change ([5]; 30 μM): −1.4 | PON1 fold change ([5]; 30 μM): −1.9 | RXRA fold change ([5]; 30 μM): −1.1 | SCARB1 fold change ([5]; 30 μM): −1.6 | SDC1 fold change ([5]; 30 μM): −1.4 | SERPINF2 fold change ([5]; 30 μM): −1.5 | SLC22A7 fold change ([5]; 30 μM): −2.6 | SLC51B fold change ([5]; 30 μM): −1.9 | SULT2A1 fold change ([5]; 30 μM): −1.9 | Cmax [6]: 420 nM

S=C=Nc1cccc2ccccc12 [AN, Alpha-naphthylisothiocyanate]
Number of regulated genes ([1]; 25 μM): 2 | Number of regulated genes ([1]; 50 μM): 183 | Number of regulated genes ([1]; 75 μM): 458 | ATF4 fold change ([2]; 75 μM): 2.3 | DDIT3 (CHOP) fold change ([2]; 75 μM): 2.9 | DNAJB9 fold change ([2]; 75 μM): 2.7 | ERN1 fold change ([2]; 75 μM): 1.5 | HSPA9 fold change ([2]; 75 μM): 1.9 | HSPH1 fold change ([2]; 75 μM): 2.0 | INSIG1 fold change ([2]; 75 μM): −2.5 | NFE2L2 fold change ([2]; 75 μM): 1.5 | SYVN1 fold change ([2]; 75 μM): 1.5 | ABCB4 fold change ([4]; 75 μM): −2.1 | ABCB11 fold change ([4]; 75 μM): −1.3 | ABCC3 fold change ([4]; 75 μM): −1.2 | ABCG5 fold change ([4]; 75 μM): −1.6 | ABCG8 fold change ([4]; 75 μM): −2.3 | CYP8B1 fold change ([4]; 75 μM): −3.4 | CYP27A1 fold change ([4]; 75 μM): −1.4 | GCGR fold change ([4]; 75 μM): −1.9 | IL1B fold change ([4]; 75 μM): −1.2 | IL1RL1 fold change ([4]; 75 μM): 2.3 | IL1RN fold change ([4]; 75 μM): 1.1 | IRAK2 fold change ([4]; 75 μM): 1.6 | JUN fold change ([4]; 75 μM): 1.3 | NR0B2 fold change ([4]; 75 μM): −1.2 | NR1H3 fold change ([4]; 75 μM): −1.1 | NR1H4 fold change ([4]; 75 μM): −1.1 | PPRC1 fold change ([4]; 75 μM): 1.6 | RXRA fold change ([4]; 75 μM): −1.6 | SLC22A7 fold change ([4]; 75 μM): −2.9 | TNFRSF1B fold change ([4]; 75 μM): −1.5 | ABCB4 fold change ([5]; 75 μM): −2.1 | ABCB11 fold change ([5]; 75 μM): −1.8 | ABCG5 fold change ([5]; 75 μM): −1.5 | ABCG8 fold change ([5]; 75 μM): −2.3 | APOC2 fold change ([5]; 75 μM): −1.8 | APOC4 fold change ([5]; 75 μM): −1.8 | APOF fold change ([5]; 75 μM): −1.9 | BAAT fold change ([5]; 75 μM): −1.8 | C3 fold change ([5]; 75 μM): −1.7 | CYP8B1 fold change ([5]; 75 μM): −3.5 | CYP27A1 fold change ([5]; 75 μM): −1.3 | FASN fold change ([5]; 75 μM): −1.9 | FBP1 fold change ([5]; 75 μM): −1.8 | FETUB fold change ([5]; 75 μM): −2.0 | FGA fold change ([5]; 75 μM): −2.1 | ITIH4 fold change ([5]; 75 μM): −1.9 | KNG1 fold change ([5]; 75 μM): −2.3 | NR0B2 (SHP) fold change ([5]; 75 μM): −1.8 | NR1H3 (LXR) fold change ([5]; 75 μM): −1.8 | NR1H4 (FXR) fold change ([5]; 75 μM): −1.8 | PON1 fold change ([5]; 75 μM): −2.0 | RXRA fold change ([5]; 75 μM): −1.5 | SCARB1 fold change ([5]; 75 μM): −2.2 | SDC1 fold change ([5]; 75 μM): −2.0 | SERPINF2 fold change ([5]; 75 μM): −1.8 | SLC22A7 fold change ([5]; 75 μM): −2.9 | SLC51B fold change ([5]; 75 μM): −1.9 | SULT2A1 fold change ([5]; 75 μM): −2.1
